From ChEMBL document CHEMBL1201862, “PubChem BioAssay data set” (2004)
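Five compound concentrations were applied to cells in 96-well plates for 48 hours; endpoints were derived by simple linear interpolation of the resulting dose-response curve. GI50 marks 50% less growth.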 Activity calls are given as the source filed them. Rule as the data show it: active = GI50 up to about 1.1 µM and inactive = higher.

Columns and labels:
Assay in all cases: inhibition of tumour cell growth, NCI panel, 48 h
786-0 = test system: 786-0
A498 = test system: A498
A549 = test system: A549
ACHN = test system: ACHN
CAKI-1 = test system: CAKI-1
CCRF-CEM = test system: CCRF-CEM
COLO 205 = test system: COLO 205
DLD-1 = test system: DLD-1
DMS-273 = test system: DMS-273
EKVX = test system: EKVX
HCC 2998 = test system: HCC 2998
HCT-116 = test system: HCT-116
HCT-15 = test system: HCT-15
HL-60 = test system: HL-60
HOP-18 = test system: HOP-18
HOP-62 = test system: HOP-62
HOP-92 = test system: HOP-92
HT-29 = test system: HT-29
IGROV-1 = test system: IGROV-1
K562 = test system: K562
KM-20L2 = test system: KM-20L2
KM12 = test system: KM12
LOX IMVI = test system: LOX IMVI
LXFL 529 = test system: LXFL 529
M14 = test system: M14
M19-MEL = test system: M19-MEL
MOLT-4 = test system: MOLT-4
Malme-3M = test system: Malme-3M
NCI-H226 = test system: NCI-H226
NCI-H23 = test system: NCI-H23
NCI-H460 = test system: NCI-H460
NCI-H522 = test system: NCI-H522
OVCAR-3 = test system: OVCAR-3
OVCAR-4 = test system: OVCAR-4
OVCAR-5 = test system: OVCAR-5
OVCAR-8 = test system: OVCAR-8
RPMI-8226 = test system: RPMI-8226
RXF 393 = test system: RXF 393
RXF 631 = test system: RXF 631
SF-268 = test system: SF-268
SF-295 = test system: SF-295
SF-539 = test system: SF-539
SK-MEL-28 = test system: SK-MEL-28
SK-MEL-2 = test system: SK-MEL-2
SK-MEL-5 = test system: SK-MEL-5
SK-OV-3 = test system: SK-OV-3
SN12C = test system: SN12C
SNB-19 = test system: SNB-19
SNB-75 = test system: SNB-75
SNB-78 = test system: SNB-78
SR = test system: SR
SW-620 = test system: SW-620
TK-10 = test system: TK-10
U-251 = test system: U-251
UACC-257 = test system: UACC-257
UACC-62 = test system: UACC-62
UO-31 = test system: UO-31
XF498 = test system: XF498
DMS-114 = test system: DMS-114

Measured: GI50

CC(=O)OC1C(=O)C(O)C(C)OC1O[C@@H]1C[C@@]2(C)[C@@H]3CC=C4[C@@H](C[C@H](O)C(=O)C4(C)C)[C@]3(C)C(=O)C[C@]2(C)[C@H]1[C@@](C)(O)C(=O)/C=C/C(C)(C)O (some centres not stated)
1.08 µM: HCT-15
inactive: 786-0 1.53 µM | A549 2.64 µM | ACHN 2.74 µM | CAKI-1 1.36 µM | DLD-1 1.3 µM | EKVX 3.86 µM | HCC 2998 2.27 µM | HCT-116 2.2 µM | HL-60 1.91 µM | HOP-18 1.22 µM | HOP-62 2.96 µM | HOP-92 1.28 µM | HT-29 1.35 µM | IGROV-1 2.6 µM | K562 3.35 µM | KM-20L2 1.39 µM | KM12 > 7.53 µM | M19-MEL 2.44 µM | MOLT-4 3.51 µM | NCI-H23 6 µM | NCI-H460 1.98 µM | OVCAR-3 1.7 µM | OVCAR-5 7.29 µM | OVCAR-8 6.28 µM | RXF 631 2.39 µM | SF-295 3.03 µM | SK-MEL-5 1.47 µM | SK-OV-3 3.06 µM | SN12C 2.61 µM | SNB-19 1.62 µM | SR 1.52 µM | SW-620 1.12 µM | TK-10 1.85 µM | U-251 1.16 µM | UACC-62 3.15 µM | UO-31 3.18 µM
active: A498 0.577 µM | CCRF-CEM 0.662 µM | COLO 205 0.885 µM | DMS-273 0.658 µM | LOX IMVI 0.706 µM | LXFL 529 0.881 µM | M14 0.918 µM | Malme-3M 1.04 µM | NCI-H226 0.693 µM | NCI-H522 0.975 µM | OVCAR-4 1.02 µM | RPMI-8226 0.44 µM | RXF 393 0.845 µM | SF-268 0.843 µM | SF-539 0.675 µM | SK-MEL-28 0.447 µM | SK-MEL-2 0.748 µM | SNB-75 0.71 µM | SNB-78 0.916 µM | UACC-257 0.91 µM | XF498 0.297 µM

COc1cc([C@@H]2OC(=O)C3C2C(=O)O[C@H]3c2ccc(O)c(OC)c2)ccc1O (some centres not stated)
inactive: 786-0 > 100 µM | A498 > 100 µM | A549 > 100 µM | ACHN > 100 µM | CAKI-1 > 100 µM | CCRF-CEM > 100 µM | COLO 205 > 100 µM | DLD-1 > 100 µM | DMS-114 > 100 µM | DMS-273 > 100 µM | HCC 2998 > 100 µM | HCT-116 > 100 µM | HOP-18 > 100 µM | HOP-62 > 100 µM | HOP-92 > 100 µM | HT-29 > 100 µM | IGROV-1 > 100 µM | K562 > 100 µM | KM-20L2 > 100 µM | KM12 > 100 µM | LOX IMVI > 100 µM | LXFL 529 > 100 µM | M14 > 100 µM | M19-MEL > 100 µM | MOLT-4 > 100 µM | Malme-3M > 100 µM | NCI-H226 > 100 µM | NCI-H23 > 100 µM | NCI-H460 > 100 µM | OVCAR-3 > 100 µM | OVCAR-4 > 100 µM | OVCAR-5 > 100 µM | OVCAR-8 > 100 µM | RPMI-8226 > 100 µM | RXF 393 > 100 µM | RXF 631 > 100 µM | SF-268 > 100 µM | SF-295 > 100 µM | SF-539 > 100 µM | SK-MEL-28 > 100 µM | SK-MEL-5 > 100 µM | SK-OV-3 > 100 µM | SN12C > 100 µM | SNB-19 > 100 µM | SNB-75 > 100 µM | SNB-78 > 100 µM | SR > 100 µM | SW-620 > 100 µM | TK-10 > 100 µM | U-251 > 100 µM | UACC-257 > 100 µM | UACC-62 > 100 µM | UO-31 > 100 µM
> 100 µM: HCT-15
